Experimental data taken from ChEMBL document CHEMBL4665844, “HDAC-Bax Multiple Ligands Enhance Bax-Dependent Apoptosis in HeLa Cells” (J Med Chem, 2020).
The source made the active and inactive calls. The calls are words filed in the database; no cut-off is given here.

Key:
[1] = biological target: Histone deacetylase; assay: Inhibition of HDAC in human HeLa nuclear extract using Boc-Lys(acetyl)-AMC or Boc-Lys (triflouroacetyl)-AMC as substrate preincubated for 5 mins followed by substrate addition and measured after 30 mins by fluorescence assay; format: subcellular, Nucleus
[2] = biological target: T1, Apoptosis regulator BAX (Homo sapiens, UniProt Q07812); assay: Binding affinity to recombinant human full length His-tagged BAX expressed in Escherichia coli BL21 (DE3) cells preincubated for 30 min followed by FITC-BIM addition and measured after 20 mins by fluorescence polarization assay
T1 sequence (Q07812 whole entry): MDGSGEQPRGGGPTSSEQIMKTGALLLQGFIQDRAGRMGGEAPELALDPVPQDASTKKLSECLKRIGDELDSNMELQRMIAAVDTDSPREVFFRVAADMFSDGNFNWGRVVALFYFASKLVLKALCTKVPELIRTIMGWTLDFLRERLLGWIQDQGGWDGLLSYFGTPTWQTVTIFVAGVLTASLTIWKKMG

[3] = tested on: HeLa; assay: Induction of apoptosis in human HeLA cells at 3 uM after 48 hr by annexin V FITC and propidium iodide staining based flow cytometric analysis; format: functional
[4] = biological target: Bcl-2-like protein 1 (Homo sapiens, UniProt Q07817); assay: Binding affinity to full length His-tagged Bcl-xl (unknown origin) preincubated for 30 min followed by 5-FAM Bid-BH3 addition and measured after 20 mins by fluorescence polarization assay
Bcl-2-like protein 1, sequence (Q07817 whole entry): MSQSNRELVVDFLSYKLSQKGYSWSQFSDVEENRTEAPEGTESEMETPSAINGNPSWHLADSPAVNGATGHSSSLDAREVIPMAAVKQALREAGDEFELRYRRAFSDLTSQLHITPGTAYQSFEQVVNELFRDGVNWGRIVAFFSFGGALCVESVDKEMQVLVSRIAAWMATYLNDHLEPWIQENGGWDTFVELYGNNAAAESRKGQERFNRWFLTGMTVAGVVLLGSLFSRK

[5] = biological target: Histone deacetylase 2 (Homo sapiens, UniProt Q92769); assay: Inhibition of HDAC2 (unknown origin) in using Boc-Lys(acetyl)-AMC or Boc-Lys (triflouroacetyl)-AMC as substrate preincubated for 5 mins followed by substrate addition and measured after 30 mins by fluorescence assay
Histone deacetylase 2, sequence (Q92769 whole entry): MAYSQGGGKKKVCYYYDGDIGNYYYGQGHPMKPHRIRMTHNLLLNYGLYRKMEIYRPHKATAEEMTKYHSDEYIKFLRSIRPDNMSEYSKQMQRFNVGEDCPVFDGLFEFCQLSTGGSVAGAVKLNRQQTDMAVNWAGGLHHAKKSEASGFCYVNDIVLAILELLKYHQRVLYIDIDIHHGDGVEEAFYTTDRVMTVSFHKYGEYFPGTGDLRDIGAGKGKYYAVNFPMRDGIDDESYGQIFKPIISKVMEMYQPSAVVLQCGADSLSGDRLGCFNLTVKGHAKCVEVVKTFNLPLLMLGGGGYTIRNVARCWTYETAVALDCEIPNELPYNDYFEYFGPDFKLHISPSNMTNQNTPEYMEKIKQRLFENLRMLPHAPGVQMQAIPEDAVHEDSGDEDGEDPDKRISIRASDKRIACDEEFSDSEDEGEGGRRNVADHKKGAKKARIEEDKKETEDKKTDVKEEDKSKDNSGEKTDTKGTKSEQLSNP

[6] = biological target: Induced myeloid leukemia cell differentiation protein Mcl-1 (Homo sapiens, UniProt Q07820); assay: Binding affinity to full length His-tagged Mcl1 (unknown origin) preincubated for 30 min followed by 5-FAM Bid-BH3 addition and measured after 20 mins by fluorescence polarization assay
Induced myeloid leukemia cell differentiation protein Mcl-1, sequence (Q07820 whole entry): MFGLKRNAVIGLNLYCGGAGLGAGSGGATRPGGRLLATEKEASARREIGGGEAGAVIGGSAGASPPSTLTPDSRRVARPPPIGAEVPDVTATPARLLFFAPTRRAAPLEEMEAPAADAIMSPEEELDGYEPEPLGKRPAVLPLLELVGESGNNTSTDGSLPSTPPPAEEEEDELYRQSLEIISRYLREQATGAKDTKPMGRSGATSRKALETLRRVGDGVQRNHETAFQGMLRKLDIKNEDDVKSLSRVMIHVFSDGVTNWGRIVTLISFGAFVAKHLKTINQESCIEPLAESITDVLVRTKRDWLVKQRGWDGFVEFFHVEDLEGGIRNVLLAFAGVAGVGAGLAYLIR

[7] = tested on: HeLa; assay: Induction of apoptosis in human HeLa cells assessed as cellular shrinkage at 1 uM after 6 to 36 hrs by fluorescence microscopic method; format: functional, cell-based; conditions: time hrs 6-36
[8] = tested on: L02; assay: Cytotoxicity against human L02 cells assessed as reduction in cell viability after 48 hrs by MTT assay; format: ADME, cell-based; conditions: L02, 48 h
[9] = biological target: T1, Apoptosis regulator BAX; assay: Activation of BAX in human HeLa cells assessed as confirmation activation at Bax6A7 after 6 to 12 hrs by immunoprecipitation assay; format: cell-based; conditions: filed as activator, dose microM 0.3-3, time hrs 6-12
[10] = tested on: HeLa; assay: Antiproliferative activity against siRNA-induced BAX knock down human HeLa cells after 48 hrs by MTT assay; format: functional, cell-based
[11] = biological target: Apoptosis regulator Bcl-2 (Homo sapiens, UniProt P10415); assay: Binding affinity to full length His-tagged Bcl2 (unknown origin) preincubated for 30 min followed by 5-FAM Bid-BH3 addition and measured after 20 mins by fluorescence polarization assay
Apoptosis regulator Bcl-2, sequence (P10415 whole entry): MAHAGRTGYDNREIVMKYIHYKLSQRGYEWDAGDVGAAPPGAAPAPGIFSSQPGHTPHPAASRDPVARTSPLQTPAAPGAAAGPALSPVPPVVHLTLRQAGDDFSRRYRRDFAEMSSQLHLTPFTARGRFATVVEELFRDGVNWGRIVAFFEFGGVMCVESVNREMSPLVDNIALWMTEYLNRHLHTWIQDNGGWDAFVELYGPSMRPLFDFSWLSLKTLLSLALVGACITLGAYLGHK

[12] = tested on: HeLa; assay: Induction of apoptosis in human HeLa cells assessed as membrane blebbing at 1 uM after 6 to 36 hrs by fluorescence microscopic method; format: functional, cell-based; conditions: time hrs 6-36
[13] = tested on: HeLa; assay: Induction of apoptosis in human HeLa cells assessed as formation of apoptotic bodies at 1 uM after 6 to 36 hrs by fluorescence microscopic method; format: functional, cell-based; conditions: time hrs 6-36
[14] = tested on: HeLa; assay: Induction of mitochondrial membrane potential loss in human HeLa cells after 24 hrs by TMRE staining based fluorescence assay; format: functional, cell-based; conditions: dose microM 1-3, time 24.0 hrs
[15] = biological target: T2, Histone deacetylase 8 (Homo sapiens, UniProt Q9BY41); assay: Inhibition of HDAC8 (unknown origin) in using Boc-Lys(acetyl)-AMC or Boc-Lys (triflouroacetyl)-AMC as substrate preincubated for 5 mins followed by substrate addition and measured after 30 mins by fluorescence assay
T2 sequence (Q9BY41 whole entry): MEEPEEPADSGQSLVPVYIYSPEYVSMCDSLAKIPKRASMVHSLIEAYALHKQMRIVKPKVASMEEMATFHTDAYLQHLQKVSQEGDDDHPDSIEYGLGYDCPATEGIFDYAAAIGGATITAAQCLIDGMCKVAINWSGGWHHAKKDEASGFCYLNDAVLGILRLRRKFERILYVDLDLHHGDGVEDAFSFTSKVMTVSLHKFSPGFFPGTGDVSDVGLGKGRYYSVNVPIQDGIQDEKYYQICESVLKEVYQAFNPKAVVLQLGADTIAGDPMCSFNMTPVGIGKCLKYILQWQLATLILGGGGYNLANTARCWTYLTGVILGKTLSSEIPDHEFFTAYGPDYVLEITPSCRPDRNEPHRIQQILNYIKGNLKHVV

[16] = tested on: HeLa; assay: induction of apoptosis in siRNA-induced BAX knock down human HeLa cells at 3 uM after 48 hr by annexin V FITC and propidium iodide staining based flow cytometric analysis; format: functional
[17] = tested on: HeLa; assay: Up regulation of BAX protein in human HeLa cells at 0.3 to 3 uM after 6 to 12 hrs by Western blot analysis; format: functional, cell-based; conditions: dose microM 0.3-3, time hrs 6-12
[18] = tested on: HeLa; assay: Potency index, ratio of IC50 for BSTA1 to test compound IC50 for antiproliferation activity against human HeLa cells; format: functional
[19] = tested on: HeLa; assay: Induction of apoptosis in human HeLA cells at 0.3 to 1 uM after 48 hr by annexin V FITC and propidium iodide staining based flow cytometric analysis; format: functional, cell-based; conditions: dose microM 0.3-1, time 48.0 hrs
[20] = tested on: HeLa; assay: Antiproliferative activity against human HeLa cells assessed as reduction in cell viability after 48 hrs by MTT assay; format: functional, cell-based
[21] = tested on: HeLa; assay: Induction of apoptosis in human HeLA cells at 1 uM after 48 hr by laser confocal microscopic based TUNEL assay; format: functional, cell-based
[22] = tested on: HeLa; assay: Potency index, ratio of IC50 for SAHA to test compound IC50 for antiproliferation activity against human HeLa cells; format: functional
[23] = biological target: Histone deacetylase 1 (Homo sapiens, UniProt Q13547); assay: Inhibition of HDAC1 (unknown origin) in using Boc-Lys(acetyl)-AMC or Boc-Lys (triflouroacetyl)-AMC as substrate preincubated for 5 mins followed by substrate addition and measured after 30 mins by fluorescence assay
Histone deacetylase 1, sequence (Q13547 whole entry): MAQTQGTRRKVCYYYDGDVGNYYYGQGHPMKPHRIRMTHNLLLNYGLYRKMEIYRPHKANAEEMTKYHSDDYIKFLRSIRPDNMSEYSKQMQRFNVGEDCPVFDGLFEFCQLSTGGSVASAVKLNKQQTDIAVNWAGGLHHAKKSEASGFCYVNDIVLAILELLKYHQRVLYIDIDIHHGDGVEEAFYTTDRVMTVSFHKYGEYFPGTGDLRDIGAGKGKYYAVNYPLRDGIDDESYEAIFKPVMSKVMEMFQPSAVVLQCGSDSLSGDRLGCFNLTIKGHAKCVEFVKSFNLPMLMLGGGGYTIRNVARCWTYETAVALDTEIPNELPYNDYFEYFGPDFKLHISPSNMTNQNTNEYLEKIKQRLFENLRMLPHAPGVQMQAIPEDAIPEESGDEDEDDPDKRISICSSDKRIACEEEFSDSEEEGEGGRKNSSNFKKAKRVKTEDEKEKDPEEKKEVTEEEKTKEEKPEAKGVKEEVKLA

[24] = tested on: HeLa; assay: induction of apoptosis in siRNA-induced BAX knock down human HeLa cells at 0.3 to 3 uM after 48 hr by annexin V FITC and propidium iodide staining based flow cytometric analysis; format: functional, cell-based; conditions: dose microM 0.3-3, time 48.0 hrs
[25] = tested on: HeLa; assay: Induction of mitochondrial membrane potential loss in human HeLa cells at 1 to 3 uM after 24 hrs by TMRE staining based fluorescence assay; format: functional, cell-based; conditions: dose microM 1-3, time 24.0 hrs
[26] = tested on: HeLa; assay: Synergistic antiproliferative activity against human HeLa cells assessed as assessed as reduction in cell viability after 48 hrs in presence of SAHA by MTT assay; format: functional, cell-based

`O=C(CCCCCCCOc1ccc(-c2csc(N3N=C(c4ccccc4)/C(=N/Nc4nccs4)C3=O)n2)cc1)NO` showed an IC50 [1] of 135.2 nM and an EC50 [2] of 532 nM.
With `O=C(O)c1ccc(-c2csc(N3N=C(c4ccccc4)/C(=N/Nc4nccs4)C3=O)n2)cc1` the IC50 [1] was greater than 10000 nM and the EC50 [2] was 704 nM.
With `O=C(/C=C/c1ccc(COc2ccc(-c3csc(N4N=C(c5ccccc5)/C(=N/Nc5nccs5)C4=O)n3)cc2)cc1)NO` the IC50 [1] was 243.7 nM and the EC50 [2] was 992 nM.
`O=C(/C=C/c1ccc(CNC(=O)c2ccc(-c3csc(N4N=C(c5ccccc5)/C(=N/Nc5nccs5)C4=O)n3)cc2)cc1)NO` gave an IC50 [1] of 1341.5 nM and an EC50 [2] of 2220 nM.
Work on `O=C(CCCCCNC(=O)c1ccc(-c2csc(N3N=C(c4ccccc4)/C(=N/Nc4nccs4)C3=O)n2)cc1)NO` yielded an IC50 [1] of 87.5 nM and an EC50 [2] of 809 nM.
For `O=C(NO)c1ccc(CNC(=O)c2ccc(-c3csc(N4N=C(c5ccccc5)/C(=N/Nc5nccs5)C4=O)n3)cc2)cc1`, the IC50 [1] was 62.8 nM, the Activity [3] was 60% and the EC50 [4] was greater than 10000 nM. The IC50 [5] was 198 nM, the EC50 [6] was greater than 10000 nM and the Activity [7] was “Active”. For the same compound, the IC50 [8] was 65200 nM, the Activity [9] was “Dose-dependent effect” and the IC50 [10] was 7550 nM. For the same compound, the EC50 [11] was greater than 10000 nM, the Activity [12] was “Active” and the Activity [13] was “Active”. The Activity [14] was “Dose-dependent effect”, the IC50 [15] was 1090 nM and the Activity [16] was 14.8%. For the same compound, the Activity [17] was “Active”, the “Ratio IC50” value [18] was 3 and the EC50 [2] was 393 nM. The Activity [19] was “Active”, the IC50 [20] was 860 nM and the Activity [21] was “Active”. For the same compound, the “Ratio IC50” value [22] was 15 and the IC50 [23] was 66 nM.
With `O=C(CCCCOc1ccc(-c2csc(N3N=C(c4ccccc4)/C(=N/Nc4nccs4)C3=O)n2)cc1)NO` the IC50 [1] was 118.5 nM and the EC50 [2] was 967 nM.
`O=C(CCCCNC(=O)c1ccc(-c2csc(N3N=C(c4ccccc4)/C(=N/Nc4nccs4)C3=O)n2)cc1)NO` was tested, and the IC50 [1] was 207.4 nM and the EC50 [2] was 719 nM.
`O=C(CCCOc1ccc(-c2csc(N3N=C(c4ccccc4)/C(=N/Nc4nccs4)C3=O)n2)cc1)NO` was tested, and the IC50 [1] was 674.8 nM and the EC50 [2] was 725 nM.
Compound `O=C(CCCCCCNC(=O)c1ccc(-c2csc(N3N=C(c4ccccc4)/C(=N/Nc4nccs4)C3=O)n2)cc1)NO` has an IC50 [1] of 98.8 nM and an EC50 [2] of 1140 nM.
`O=C(CCCCCOc1ccc(-c2csc(N3N=C(c4ccccc4)/C(=N/Nc4nccs4)C3=O)n2)cc1)NO` showed an IC50 [1] of 75.8 nM and an EC50 [2] of 925 nM.
With `O=C1/C(=N\Nc2nccs2)C(c2ccccc2)=NN1c1nc(-c2ccccc2)cs1` the IC50 [1] was greater than 10000 nM, the Activity [3] was 19.2% and the EC50 [4] was greater than 10000 nM. The EC50 [6] was greater than 10000 nM, the Activity [24] was “inactive” and the IC50 [8] was 54200 nM. The IC50 [10] was greater than 20000 nM, the EC50 [11] was greater than 10000 nM and the Activity [25] was “Active”. The IC50 [20] was 11500 nM and the IC50 [26] was 810 nM.
In the case of `O=C(NO)c1ccc(COc2ccc(-c3csc(N4N=C(c5ccccc5)/C(=N/Nc5nccs5)C4=O)n3)cc2)cc1`, the IC50 [1] is reported as 85 nM and the EC50 [2] is reported as 538 nM.
`O=C(CCCCCCOc1ccc(-c2csc(N3N=C(c4ccccc4)/C(=N/Nc4nccs4)C3=O)n2)cc1)NO` showed an IC50 [1] of 40.8 nM and an EC50 [2] of 856 nM.
Work on `O=C(NO)c1ccc(-c2csc(N3N=C(c4ccccc4)/C(=N/Nc4nccs4)C3=O)n2)cc1` yielded an IC50 [1] of 577.4 nM and an EC50 [2] of 874 nM.
In the case of `O=C(CCCCCCC(=O)Nc1ccccc1)NO` [VORINOSTAT], the Activity [3] is reported as 47.1%, the Activity [24] is reported as “inactive” and the Activity [25] is reported as “Active”. The Activity [17] was “Active” and the EC50 [2] was greater than 10000 nM.
